# Legend:
# JAK2 = biological target: T1, JAK2 (Homo sapiens, UniProt O60674); assay: Lance Ultra Kinase Assay, recombinant JAK2; type: biochemical; settings: 5 mM ATP
# T1 construct: purchased Carna Biosciences
# Summary of the method: (§1)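 Each recombinant kinase preincubated with or without compound 15 min at room temperature, then reaction started with 5 mM ATP and substrate peptide for 60 min. Stopped with EDTA-containing detection mix; TR-FRET read at ex 320 nm, 665/615 nm emission ratio taken as kinase activity.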
# JAK1 = biological target: T2, JAK1 (Homo sapiens, UniProt P23458); assay: Lance Ultra Kinase Assay, recombinant JAK1; type: biochemical; settings: 5 mM ATP
# T2 construct: purchased Carna Biosciences
# Summary of the method: as §1
# [1] = Metabolic stability in human liver microsome; type: in vitro ADME; settings: human, pooled human liver microsomes, pH 7.4, 1 μM compound, 1 mg/mL microsomes, NADPH
# Procedure: (§2) Rat hepatocytes in male gender and human liver microsome were obtained from commercial vendors (e.g., BioreclamationIVT) and stored at −150° C. prior to use.
# For metabolic stability assay with human liver microsome, 1 μM of each test compound was incubated with 1 mg/mL of microsomes (Pooled HLM with 20 mg/ml protein cone) at 37° C. in 250 μL of buffer (100 mM phosphate buffer, pH-7.4) containing 1 mM NADPH solution. […] was quenched with 5 volumes chilled acetonitrile at different time points 0, 0.5, 5, 10, 15, 20 and 30 min in a fresh 96 well plate. The quench plate was centrifuged at 4000 rpm for 15 min. 40 μL of supernatant was diluted to 200 μL with pure water and analyzed using LC-MS/MS. […]
# [2] = Metabolic stability in rat hepatocytes; type: in vitro ADME; settings: 1 μM compound, male rat hepatocytes
# Procedure: as §2
# For metabolic stability assay with rat heptatocytes, vials of cryopreserved hepatocytes or microsome were removed from storage, ensured that vials remain at cryogenic temperatures. 1 μM of each test compound (in Acetonitrile; 0.01% DMSO) was incubated with 250 μL of hepatocyte cells (1×10^6 cells/ml) in a 96 deep well plate. […] 40 μL of supernatant was diluted to 200 μL with pure water and analyzed using LC-MS/MS.
# In vitro hepatocyte clearance was estimated based on determination of elimination half-life (T1/2) of compounds disappearance from their initial concentrations. Peak area ratios of each compound (test or control) to IS was calculated. Ln (% Control) versus Incubation Time (min) curve was plotted, and the slope of a linear fitting line was calculated. Drug elimination rate constant k (min−1), T1/2 (min), and in vitro intrinsic clearance CLint (μL/min/E6) was calculated according to the following equations: k=−slope T1/2=0.693/k CLint=k/Chep Where Chep (cells×μL^−1) is the cell concentration in the incubation system.
# TYK2 = biological target: T3, TYK2 (Homo sapiens, UniProt P29597); assay: Lance Ultra Kinase Assay, recombinant TYK2; type: biochemical; settings: 5 mM ATP
# T3 construct: purchased Carna Biosciences
# Summary of the method: as §1
# JAK3 = biological target: T4, JAK3 (Homo sapiens, UniProt P52333); assay: Lance Ultra Kinase Assay, recombinant JAK3; type: biochemical; settings: 5 mM ATP
# T4 construct: purchased Carna Biosciences
# T4 sequence (P52333 1-1124): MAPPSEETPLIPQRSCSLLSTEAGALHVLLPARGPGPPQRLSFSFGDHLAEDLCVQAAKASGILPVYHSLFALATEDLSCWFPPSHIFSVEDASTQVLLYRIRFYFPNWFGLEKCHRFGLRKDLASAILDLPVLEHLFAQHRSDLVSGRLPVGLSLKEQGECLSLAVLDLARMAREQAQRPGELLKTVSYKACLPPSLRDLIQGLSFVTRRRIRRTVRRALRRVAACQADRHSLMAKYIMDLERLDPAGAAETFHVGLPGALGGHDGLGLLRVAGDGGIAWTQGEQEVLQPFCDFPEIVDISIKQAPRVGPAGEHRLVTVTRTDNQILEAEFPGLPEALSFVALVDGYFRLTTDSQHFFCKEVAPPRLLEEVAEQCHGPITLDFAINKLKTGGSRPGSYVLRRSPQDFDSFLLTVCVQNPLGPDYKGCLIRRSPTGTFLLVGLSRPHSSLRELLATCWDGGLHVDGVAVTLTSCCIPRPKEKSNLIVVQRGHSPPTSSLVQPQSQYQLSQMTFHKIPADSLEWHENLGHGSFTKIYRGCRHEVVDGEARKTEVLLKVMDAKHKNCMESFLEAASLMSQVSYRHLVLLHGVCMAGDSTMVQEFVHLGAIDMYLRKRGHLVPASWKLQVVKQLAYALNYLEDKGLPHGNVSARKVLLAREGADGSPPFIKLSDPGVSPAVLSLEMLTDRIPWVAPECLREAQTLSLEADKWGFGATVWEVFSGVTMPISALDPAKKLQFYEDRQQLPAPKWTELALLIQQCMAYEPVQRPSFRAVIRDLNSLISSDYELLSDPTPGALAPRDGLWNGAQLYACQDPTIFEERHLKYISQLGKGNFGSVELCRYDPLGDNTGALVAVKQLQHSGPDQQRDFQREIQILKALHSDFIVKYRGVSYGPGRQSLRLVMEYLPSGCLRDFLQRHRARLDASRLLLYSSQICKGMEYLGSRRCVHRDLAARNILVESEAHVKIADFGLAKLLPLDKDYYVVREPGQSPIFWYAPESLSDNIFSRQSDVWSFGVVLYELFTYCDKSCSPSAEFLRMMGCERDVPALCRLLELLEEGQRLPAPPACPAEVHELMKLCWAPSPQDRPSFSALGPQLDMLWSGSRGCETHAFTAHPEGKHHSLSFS
# Summary of the method: as §1
# phosphorylation of STAT6 = assay: Cellular p-STAT6 assay, IL-13 stimulated THP-1 cells, flow cytometry; type: cell-based; settings: Homo sapiens, THP-1, THP-1 cells, IL-13 10 ng/ml; read-out: pSTAT6 IC50
# Summary of the method: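 THP-1 cells (2×10^5/well, RPMI1640 + 10% FBS) preincubated 60 min at room temperature with compound (1 μM to 0.3 nM), then stimulated 30 min with IL-13 at 10 ng/ml. Fixed, methanol-permeabilized cells stained with PE anti-pSTAT6 and read by flow cytometry; IC50 from dose-response curves.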
# T2 sequence (P23458 whole entry): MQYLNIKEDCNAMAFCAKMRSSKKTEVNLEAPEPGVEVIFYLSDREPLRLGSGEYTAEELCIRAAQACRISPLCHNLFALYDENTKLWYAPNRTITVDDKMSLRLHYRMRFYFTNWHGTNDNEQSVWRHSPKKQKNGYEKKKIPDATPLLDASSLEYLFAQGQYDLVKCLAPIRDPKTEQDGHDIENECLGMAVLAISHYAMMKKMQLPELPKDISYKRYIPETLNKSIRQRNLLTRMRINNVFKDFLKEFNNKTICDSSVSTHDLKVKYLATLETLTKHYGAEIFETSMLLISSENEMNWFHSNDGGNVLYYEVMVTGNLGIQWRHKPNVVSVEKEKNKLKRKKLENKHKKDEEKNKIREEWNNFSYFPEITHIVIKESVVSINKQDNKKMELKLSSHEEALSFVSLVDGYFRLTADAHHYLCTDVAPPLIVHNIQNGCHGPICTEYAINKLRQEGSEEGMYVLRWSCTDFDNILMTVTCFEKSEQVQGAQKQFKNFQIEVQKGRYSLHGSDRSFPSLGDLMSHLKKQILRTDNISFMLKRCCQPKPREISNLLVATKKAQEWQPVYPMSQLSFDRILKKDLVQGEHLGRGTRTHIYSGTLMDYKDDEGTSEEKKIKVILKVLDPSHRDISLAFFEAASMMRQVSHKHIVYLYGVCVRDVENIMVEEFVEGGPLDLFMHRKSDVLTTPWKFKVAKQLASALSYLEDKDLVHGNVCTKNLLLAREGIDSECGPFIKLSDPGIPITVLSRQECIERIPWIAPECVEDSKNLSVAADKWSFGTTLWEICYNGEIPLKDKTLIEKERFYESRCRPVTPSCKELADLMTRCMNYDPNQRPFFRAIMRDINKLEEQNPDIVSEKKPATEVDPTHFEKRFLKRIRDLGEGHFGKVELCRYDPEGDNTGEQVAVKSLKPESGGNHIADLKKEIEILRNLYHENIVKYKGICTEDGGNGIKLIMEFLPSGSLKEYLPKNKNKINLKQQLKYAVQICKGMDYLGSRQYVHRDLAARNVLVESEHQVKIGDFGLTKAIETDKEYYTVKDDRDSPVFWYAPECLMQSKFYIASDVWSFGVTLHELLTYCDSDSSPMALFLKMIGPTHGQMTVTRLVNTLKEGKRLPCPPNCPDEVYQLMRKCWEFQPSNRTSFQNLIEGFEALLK
# T1 sequence (O60674 whole entry): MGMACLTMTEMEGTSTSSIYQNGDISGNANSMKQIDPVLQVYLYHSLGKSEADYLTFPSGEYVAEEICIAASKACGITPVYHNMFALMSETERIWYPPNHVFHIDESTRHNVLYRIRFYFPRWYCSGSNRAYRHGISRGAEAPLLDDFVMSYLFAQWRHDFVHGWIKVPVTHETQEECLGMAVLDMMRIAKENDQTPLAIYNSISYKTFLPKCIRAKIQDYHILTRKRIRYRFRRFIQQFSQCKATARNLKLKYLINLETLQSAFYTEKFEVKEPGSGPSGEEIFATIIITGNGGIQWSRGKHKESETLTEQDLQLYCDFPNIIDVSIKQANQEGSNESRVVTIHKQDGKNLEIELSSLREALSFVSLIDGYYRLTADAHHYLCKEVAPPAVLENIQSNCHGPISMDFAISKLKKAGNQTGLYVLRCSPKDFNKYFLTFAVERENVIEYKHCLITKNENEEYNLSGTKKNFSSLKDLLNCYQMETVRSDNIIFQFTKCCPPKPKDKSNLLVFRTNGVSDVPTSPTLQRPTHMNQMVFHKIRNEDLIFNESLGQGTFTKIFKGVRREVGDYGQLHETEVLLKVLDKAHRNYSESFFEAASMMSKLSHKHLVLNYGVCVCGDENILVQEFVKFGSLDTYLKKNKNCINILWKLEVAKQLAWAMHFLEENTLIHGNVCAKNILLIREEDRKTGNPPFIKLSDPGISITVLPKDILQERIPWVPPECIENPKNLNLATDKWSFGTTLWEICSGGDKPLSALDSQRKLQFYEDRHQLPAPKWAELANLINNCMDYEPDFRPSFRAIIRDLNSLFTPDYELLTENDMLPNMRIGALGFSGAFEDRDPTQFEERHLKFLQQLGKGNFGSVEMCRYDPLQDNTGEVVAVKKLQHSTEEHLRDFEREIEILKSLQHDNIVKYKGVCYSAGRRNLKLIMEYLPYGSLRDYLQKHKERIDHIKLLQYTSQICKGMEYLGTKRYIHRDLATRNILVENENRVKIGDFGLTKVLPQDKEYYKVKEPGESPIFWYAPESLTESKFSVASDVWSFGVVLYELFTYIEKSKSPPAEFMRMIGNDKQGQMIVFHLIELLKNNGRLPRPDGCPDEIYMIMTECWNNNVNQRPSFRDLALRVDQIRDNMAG
# T3 sequence (P29597 whole entry): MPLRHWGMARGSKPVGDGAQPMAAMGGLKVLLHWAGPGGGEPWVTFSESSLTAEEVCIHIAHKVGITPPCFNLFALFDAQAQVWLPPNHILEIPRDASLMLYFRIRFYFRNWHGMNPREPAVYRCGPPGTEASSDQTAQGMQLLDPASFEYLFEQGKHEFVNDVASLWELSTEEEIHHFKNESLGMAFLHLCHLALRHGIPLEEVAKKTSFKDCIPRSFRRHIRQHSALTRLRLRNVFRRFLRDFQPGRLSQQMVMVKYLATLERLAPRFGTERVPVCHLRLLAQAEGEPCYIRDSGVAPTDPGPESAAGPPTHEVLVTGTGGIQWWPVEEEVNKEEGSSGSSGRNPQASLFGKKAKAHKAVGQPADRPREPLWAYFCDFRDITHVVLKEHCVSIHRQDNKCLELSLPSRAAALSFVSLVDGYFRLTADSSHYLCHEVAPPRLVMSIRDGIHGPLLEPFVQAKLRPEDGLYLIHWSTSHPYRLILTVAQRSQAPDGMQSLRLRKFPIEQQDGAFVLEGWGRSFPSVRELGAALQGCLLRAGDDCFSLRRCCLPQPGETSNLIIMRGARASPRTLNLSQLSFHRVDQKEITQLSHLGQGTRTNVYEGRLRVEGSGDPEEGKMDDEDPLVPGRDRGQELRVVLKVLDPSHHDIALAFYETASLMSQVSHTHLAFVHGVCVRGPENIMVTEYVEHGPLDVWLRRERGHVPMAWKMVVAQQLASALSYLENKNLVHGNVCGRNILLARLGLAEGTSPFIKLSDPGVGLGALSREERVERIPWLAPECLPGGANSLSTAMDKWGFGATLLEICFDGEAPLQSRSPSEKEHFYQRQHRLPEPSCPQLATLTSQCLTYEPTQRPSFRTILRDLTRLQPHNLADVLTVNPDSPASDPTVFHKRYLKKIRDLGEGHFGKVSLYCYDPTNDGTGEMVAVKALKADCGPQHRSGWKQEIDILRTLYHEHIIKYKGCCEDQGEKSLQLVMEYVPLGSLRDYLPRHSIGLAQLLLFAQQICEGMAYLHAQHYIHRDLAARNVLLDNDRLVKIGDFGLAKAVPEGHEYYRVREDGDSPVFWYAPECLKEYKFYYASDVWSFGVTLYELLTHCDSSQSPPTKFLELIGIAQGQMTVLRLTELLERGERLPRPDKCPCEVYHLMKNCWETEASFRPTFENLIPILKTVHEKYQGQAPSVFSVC
SMILES,IC50 (JAK2) [nM],IC50 (JAK1) [nM],microsomal CLint at 1 μM [1] [µL/min/mg],Rat Hepatocyte CLint [2] [μL/min/10^6 cells],IC50 (TYK2) [nM],IC50 (JAK3) [nM],IC50 (phosphorylation of STAT6) [nM]
"COC[C@H](C(=O)Nc1cccc2c(-c3nc(Nc4ccc5c(c4)C(=O)NCC5)ncc3F)c[nH]c12)N1CCN(C)CC1 [Example 35, (R)-N-(3-(5-fluoro-2-((1-oxo-1,2,3,4-tetrahydroisoquinolin-7-yl)amino)pyrimidin-4-yl)-1H-indol-7-yl)-3-methoxy-2-(4-methylpiperazin-1-yl)propanamide]",199,0.26,9.2,2.2,2040,> 10000,11.3
"CCOC(=O)c1ccc(Nc2ncc(F)c(-c3c[nH]c4c(NC(=O)[C@@H](COC)N5CCN(C)CC5)cccc34)n2)cn1 [Example 36, ethyl (R)-5-((5-fluoro-4-(7-(3-methoxy-2-(4-methylpiperazin-1-yl)propanamido)-1H-indol-3-yl)pyrimidin-2-yl)amino)picolinate]",491,0.29,> 300,>300,4610,> 10000,11.5
"COC[C@H](C(=O)Nc1cccc2c(-c3nc(Nc4ccc5c(c4)NC(=O)C5)ncc3F)c[nH]c12)N1CCN(C)CC1 [Example 37, (R)-N-(3-(5-fluoro-2-((2-oxoindolin-6-yl)amino)pyrimidin-4-yl)-1H-indol-7-yl)-3-methoxy-2-(4-methylpiperazin-1-yl)propanamide]",68,0.21,11.7,6.3,996,4760,11.5
"COC[C@H](C(=O)Nc1cccc2c(-c3nc(Nc4ccc5nc[nH]c5c4)ncc3F)c[nH]c12)N1CCN(C)CC1 [Example 45, (R)-N-(3-(2-((1H-benzo[d]imidazol-6-yl)amino)-5-fluoropyrimidin-4-yl)-1H-indol-7-yl)-3-methoxy-2-(4-methylpiperazin-1-yl)propanamide]",131,0.14,45.2,2.7,1290,> 10000,13.4
"COC[C@H](C(=O)Nc1cccc2c(-c3nc(Nc4ccc(NC(C)=O)nc4)ncc3F)c[nH]c12)N1CCN(C)CC1 [Example 48, (R)-N-(3-(2-((6-acetamidopyridin-3-yl)amino)-5-fluoropyrimidin-4-yl)-1H-indol-7-yl)-3-methoxy-2-(4-methylpiperazin-1-yl)propanamide]",379,0.27,69.1,1.6,1700,> 10000,14
"COC[C@H](C(=O)Nc1cccc2c(-c3nc(Nc4cnn(-c5ccccc5CO)c4)ncc3F)c[nH]c12)N1CCN(C)CC1 [Example 53, (R)-N-(3-(5-fluoro-2-((1-(2-(hydroxymethyl)phenyl)-1H-pyrazol-4-yl)amino)pyrimidin-4-yl)-1H-indol-7-yl)-3-methoxy-2-(4-methylpiperazin-1-yl)propanamide]",180,0.22,27.9,17.4,1660,> 10000,15
"COC[C@H](C(=O)Nc1cccc2c(-c3nc(Nc4cnc(C(=O)OC)c(C)c4)ncc3F)c[nH]c12)N1CCN(C)CC1 [Example 57, methyl (R)-5-((5-fluoro-4-(7-(3-methoxy-2-(4-methylpiperazin-1-yl)propanamido)-1H-indol-3-yl)pyrimidin-2-yl)amino)-3-methylpicolinate]",44,0.16,> 300,24.0,922,> 10000,16
"COC[C@H](C(=O)Nc1cccc2c(-c3nc(Nc4ccc(CO)cn4)ncc3F)c[nH]c12)N1CCN(C)CC1 [Example 59, (R)-N-(3-(5-fluoro-2-((5-(hydroxymethyl)pyridin-2-yl)amino)pyrimidin-4-yl)-1H-indol-7-yl)-3-methoxy-2-(4-methylpiperazin-1-yl)propanamide]",2220,131,10.7,>300,> 10000,> 10000,17.4
"COC[C@H](C(=O)Nc1cccc2c(-c3nc(Nc4ccc(CCO)nc4)ncc3F)c[nH]c12)N1CCN(C)CC1 [Example 60, (R)-N-(3-(5-fluoro-2-((6-(2-hydroxyethyl)pyridin-3-yl)amino)pyrimidin-4-yl)-1H-indol-7-yl)-3-methoxy-2-(4-methylpiperazin-1-yl)propanamide]",158,0.25,7,4.6,1340,> 10000,17.6
"COC[C@H](C(=O)Nc1cccc2c(-c3nc(Nc4ccc5c(c4)C(=O)OCC5)ncc3F)c[nH]c12)N1CCN(C)CC1 [Example 64, (R)-N-(3-(5-fluoro-2-((1-oxoisochroman-7-yl)amino)pyrimidin-4-yl)-1H-indol-7-yl)-3-methoxy-2-(4-methylpiperazin-1-yl)propanamide]",22,0.14,21.9,4.0,512,> 10000,18.4
"COC[C@H](C(=O)Nc1cccc2c(-c3nc(Nc4cnc(CCO)c(OC)c4)ncc3F)c[nH]c12)N1CCN(C)CC1 [Example 66, (R)-N-(3-(5-fluoro-2-((6-(2-hydroxyethyl)-5-methoxypyridin-3-yl)amino)pyrimidin-4-yl)-1H-indol-7-yl)-3-methoxy-2-(4-methylpiperazin-1-yl)propanamide]",12,0.35,25,12.7,545,> 10000,20.3
